The NIST ThermoML archive (doi:10.1016/j.jct.2013.02.023)
± gives the expanded uncertainty stated by the source.

Experiment: molar heat capacity at constant pressure
Conditions: 101.33 kPa, relaxation calorimetry - Quantum Design PPMS

O=P([O-])([O-])OP(=O)([O-])[O-].O=P([O-])([O-])OP(=O)([O-])[O-].O=P([O-])([O-])OP(=O)([O-])[O-].[Fe+3].[Fe+3].[Fe+3].[Fe+3] [iron(III) diphosphate]
molar heat capacity at constant pressure [J/K/mol]
Conditions | Crystal 1 | Crystal 2
45.43 K | – | 122.94 ± 2.5
45.64 K | – | 124.36 ± 2.5
45.84 K | – | 125.76 ± 2.5
46.02 K | – | 126.95 ± 2.5
46.22 K | – | 128.47 ± 2.6
46.44 K | – | 130.17 ± 2.6
46.64 K | – | 131.93 ± 2.6
46.84 K | – | 133.84 ± 2.7
47.05 K | – | 135.68 ± 2.7
47.24 K | – | 137.48 ± 2.8
47.38 K | – | 138.74 ± 2.8
47.44 K | – | 139.11 ± 2.8
47.58 K | – | 139.19 ± 2.8
47.6 K | 139.19 ± 3.4 | 139.19 ± 3.3
47.65 K | 138.86 ± 2.9 | –
47.77 K | 136.97 ± 2.8 | –
47.84 K | 134.84 ± 2.8 | –
47.97 K | 130.03 ± 2.7 | –
48.05 K | 126.52 ± 2.6 | –
48.16 K | 121.47 ± 2.5 | –
48.26 K | 116.89 ± 2.4 | –
48.36 K | 112.95 ± 2.3 | –
48.42 K | 110.73 ± 2.3 | –
48.55 K | 107.38 ± 2.2 | –
48.66 K | 105.62 ± 2.2 | –
48.76 K | 103.95 ± 2.1 | –
48.97 K | 102.08 ± 2.1 | –
49.16 K | 101.07 ± 2 | –
49.25 K | 100.78 ± 2 | –
49.37 K | 100.37 ± 2 | –
49.56 K | 99.82 ± 2 | –
49.74 K | 99.5 ± 2 | –
49.76 K | 99.49 ± 2 | –
49.97 K | 99.12 ± 2 | –
50 K | 99.09 ± 2.2 | –
50.16 K | 98.85 ± 2 | –
50.24 K | 98.89 ± 2 | –
50.37 K | 98.71 ± 2 | –
50.75 K | 98.49 ± 2 | –
51.26 K | 98.47 ± 2 | –
51.78 K | 98.62 ± 2 | –
52.26 K | 99.14 ± 2 | –
52.77 K | 99.39 ± 2 | –
53.27 K | 99.87 ± 2 | –
53.79 K | 100.51 ± 2 | –
53.8 K | 100.65 ± 2 | –
54.3 K | 101.12 ± 2 | –
54.8 K | 101.89 ± 2 | –
55 K | 102.2 ± 2.2 | –
55.3 K | 102.66 ± 2 | –
55.82 K | 103.45 ± 2.1 | –
56.32 K | 104.29 ± 2.1 | –
56.83 K | 105.21 ± 2.1 | –
57.33 K | 106.12 ± 2.1 | –
57.82 K | 106.98 ± 2.1 | –
58.35 K | 107.99 ± 2.2 | –
58.86 K | 109.04 ± 2.2 | –
59.33 K | 110.07 ± 2.2 | –
59.86 K | 111.09 ± 2.2 | –
60 K | 111.36 ± 2.5 | –
60.37 K | 112.09 ± 2.2 | –
61.22 K | 114 ± 2.3 | –
62.42 K | 116.32 ± 2.3 | –
63.41 K | 118.45 ± 2.4 | –
64.42 K | 120.61 ± 2.4 | –
65 K | 121.89 ± 2.7 | –
65.42 K | 122.92 ± 2.5 | –
66.42 K | 124.93 ± 2.5 | –
67.44 K | 127.27 ± 2.5 | –
68.45 K | 129.47 ± 2.6 | –
69.47 K | 131.89 ± 2.6 | –
70 K | 133.03 ± 2.9 | –
70.48 K | 134.15 ± 2.7 | –
71.49 K | 136.51 ± 2.7 | –
72.5 K | 138.68 ± 2.8 | –
73.5 K | 141.06 ± 2.8 | –
73.58 K | 141.14 ± 2.8 | –
74.51 K | 143.36 ± 2.9 | –
75 K | 144.64 ± 3.2 | –
75.53 K | 145.73 ± 2.9 | –
76.55 K | 148.3 ± 3 | –
77.56 K | 150.74 ± 3 | –
78.57 K | 153.39 ± 3.1 | –
79.58 K | 155.6 ± 3.1 | –
80 K | 156.55 ± 3.4 | –
80.59 K | 158.26 ± 3.2 | –
81.7 K | 160.54 ± 3.2 | –
85 K | 168.61 ± 3.7 | –
90 K | 180.67 ± 4 | –
90.71 K | 182.62 ± 3.6 | –
95 K | 193.23 ± 4.2 | –
100 K | 205.34 ± 4.5 | –
100.7 K | 205.22 ± 4.1 | –
110 K | 227.92 ± 5 | –
110.85 K | 227.84 ± 4.6 | –
120 K | 248.76 ± 5.5 | –
120.85 K | 248.93 ± 5 | –
130 K | 268.26 ± 5.9 | –
130.93 K | 269.49 ± 5.4 | –
140 K | 286.79 ± 6.3 | –
141.05 K | 288.92 ± 5.8 | –
150 K | 304.56 ± 6.7 | –
151.1 K | 307 ± 6.1 | –
160 K | 321.72 ± 7.1 | –
161.21 K | 324.93 ± 6.5 | –
170 K | 338.34 ± 7.4 | –
171.22 K | 342.32 ± 6.8 | –
180 K | 354.45 ± 7.8 | –
181.32 K | 357.51 ± 7.2 | –
190 K | 370.05 ± 8.1 | –
191.45 K | 374.2 ± 7.5 | –
200 K | 385.13 ± 8.5 | –
201.57 K | 387.79 ± 7.8 | –
210 K | 399.67 ± 8.8 | –
211.7 K | 401.38 ± 8 | –
220 K | 413.65 ± 9.1 | –
221.82 K | 416.43 ± 8.3 | –
230 K | 427.07 ± 9.4 | –
231.97 K | 429 ± 8.6 | –
240 K | 439.91 ± 9.7 | –
242.05 K | 440.09 ± 8.8 | –
250 K | 452.18 ± 9.9 | –
252.07 K | 452.65 ± 9.1 | –
260 K | 463.87 ± 10 | –
262.14 K | 465.23 ± 9.3 | –
270 K | 475 ± 10 | –
272.29 K | 475.97 ± 9.5 | –
273.15 K | 478.39 ± 11 | –
280 K | 485.58 ± 11 | –
282.37 K | 488.57 ± 9.8 | –
290 K | 495.63 ± 11 | –
292.36 K | 498.4 ± 10 | –
298.15 K | 503.44 ± 11 | –
300 K | 505.16 ± 11 | –
302.55 K | 510.46 ± 10 | –
